Data set [1] relates to chloroquine-sensitive Pf3D7 (MRA-102) P. falciparum strain. As to the kind of experiment: SYBR green I-based fluorescence P. falciparum growth inhibition assay, Pf3D7. It counts as cell-based. Particulars: Plasmodium falciparum, read-out: IC50 ± SD Pf3D7. On the procedure: (§1) The chloroquine-sensitive Pf3D7-(MRA-102) and chloroquine-resistant PfDd2-(MRA-150) P. falciparum strains were maintained as previously described in fresh O^+ human red blood cells at 4% haematocrit in complete RPMI 1640 medium [500 mL RPMI 1640 (Gibco, UK) supplemented with 25 mM HEPES (Gibco, UK), […] (Gibco, USA), 1X hypoxanthine (Gibco, USA) and […] gentamicin (Gibco, China)] and incubating at 37 °C in a humidified atmosphere with 5% CO2. The medium was renewed daily to propagate the culture. Giemsa-stained thin blood smears were examined microscopically under immersion oil to monitor cell-cycle transition and parasitemia evolution. O^+ human red blood cells were obtained from a consent volunteer donor (Supplementary material).
(§2) Before each experiment, synchronized ring-stage parasite were obtained by 5% sorbitol (w/v) treatment with respect to Lambros and Vanderberg, 1979 [12]. It is crucial to note that, using cultures over mixed stage cultures can enable the test molecules to interact with all three stages (ring, trophozoite, and schizont) of the 48 h long life cycle of P. falciparum in culture.
(§3) A drug sensitivity assay was carried out in 96-well microtitration plates using a SYBR green I-based fluorescence assay. This assay is specifically based on the ability of SYBR green to give strong fluorescence only in the presence of parasite DNA during cell proliferation.
(§4) Shortly, sorbitol-synchronized ring stage parasites (hematocrit: 1%, parasitemia: 2%, 90 μl) under normal culture conditions were incubated in the presence of prediluted extracts, fractions, isolated compounds and reference drug (10 μL) followed by incubation at 37℃ for 72 h. After incubation, 100 μL of SYBR Green I buffer [6 μL of 10,000 × SYBR Green I (Invitrogen) + 600 μL of Red Blood Cells lysis buffer {Tris (25 mM; pH 7.5)} + 360 μL of EDTA (7.5 mM) + 19,2 μL of parasites lysis solution {saponin (0.012%; wt/vol)} and 28,8 μL of Triton X-100 (0.08%; vol/vol)}] was added to each well, mixed twice gently with a multichannel pipette and incubated in the dark at 37℃ for 1 h. Fluorescence was measured using a TECAN M 200 Microplate reader with excitation and emission at 485 and 538 nm, respectively. The fluorescence counts were plotted against the logarithm of the sample concentration and the 50% inhibitory concentration (IC50) was determined by analysis of dose–response curves using GraphPad Prism 5.0. Experiments were performed in duplicate.

The subject of data set [2] is chloroquine-resistant (multidrug-resistant) PfDd2 (MRA-150) P. falciparum strain. As to the kind of experiment: SYBR green I-based fluorescence P. falciparum growth inhibition assay, PfDd2. It counts as cell-based, Plasmodium falciparum. The following applies: for IC50: Plasmodium falciparum, read-out: IC50 ± SD PfDd2; for antiplasmodial activity class on PfDd2: class by IC50 criteria of b51, Dd2 strain only. How it is done:
as §1, §2, §3, §4

The subject of data set [3] is chloroquine-resistant (Dd2) strain of P. falciparum. The following applies: Zofou and colleagues (2013) ref 9; cited from earlier work.
Data set [4] can be described thus: Resazurin-based in vitro cytotoxicity assay. It counts as cell-based. Particulars: mouse. On the procedure: The cytotoxicity profile of extracts, fractions and isolated compounds was assessed using the resazurin-based assay essentially as previously described against RAW 264.7 cells duly cultivated in complete Dulbecco′s Modified Eagle′s Medium (DMEM) that contain 13.5 g/L of DMEM (Sigma Aldrich), 10% fetal bovine serum (Sigma Aldrich), 0.2% sodium bicarbonate (w/v) (Sigma Aldrich) and 50 μg/mL of gentamicin (Sigma Aldrich). Globally, macrophages (Raw cells) were seeded into 96-well cell-culture flat-bottomed plates at a density of 10^4 cells in 100 μL of complete medium/well and placed in incubation for 24 h at 37℃, and 5% CO2 allowing cell adhesion. Following cell adhesion, ten microliters of each serially diluted test sample solution was added to assay plates and left in incubation for 48 h under the same experimental conditions. Growth control (1% DMSO-100% growth) and positive control wells (podophyllotoxin at 20 μM) were included in the experimental plates. Cell proliferation was checked by adding 10 μL of a stock solution of resazurin (0.15 mg/mL in sterile PBS) to each well followed by an additional incubation of 4 h in the same culture conditions. Fluorescence was then read using Tecan Infinite M200 fluorescence multiwell plate reader (Tecan) at an excitation/emission of 530/590 nm. The results were expressed as 50% cytotoxic concentrations (CC50) and selectivity indices (CC50 Mammalian cell/IC50 Pf3D7) were calculated for each test substance.
On the technique in general: Resazurin is reduced to fluorescent resorufin, in cell work by metabolically active cells.

Data set [5] concerns P. falciparum 3D7 and Dd2 strains. As to the kind of experiment: SYBR green antiplasmodial assay, results stated for both strains together. It counts as cell-based, Plasmodium falciparum. Particulars: for Resistance Index (RI): PfDd2 versus Pf3D7; for antiplasmodial activity class on both Pf3D7 and PfDd2: class by IC50 criteria of b51.
Description: The medium was renewed daily to propagate the culture. Giemsa-stained thin blood smears were examined microscopically under immersion oil to monitor cell-cycle transition and parasitemia evolution. O^+ human red blood cells were obtained from a consent volunteer donor (Supplementary material).
as §2, §3, §4

[6] abbreviates: reference drugs, unit nM printed with the name.
Setting [7] is: Raw cells, 48 h, resazurin, read-out: CC50.
The mark [8] stands for this setting: SYBr Green based assay, 72 h, chloroquine-sensitive strain.
Setting [9] is: SYBr Green based assay, 72 h, multidrug-resistant strain.

Each structure is given as a SMILES string. Converted amounts (≈) assume the structure as drawn. Like-named read-outs stand apart in the source and are kept apart here.

For orientation: IC50 means the midpoint of a concentration-inhibition curve. Take `C[C@@H]1CC[C@H]2[C@@H](C)C(=O)O[C@@H]3O[C@@]4(C)CC[C@@H]1[C@]32OO4` [Artemisinin, reference compound]: the IC50 in data set [1] (setting [6]) was 14.66 ± 0.11 nM; in data set [2] (setting [6]), 18.9 ± 0.13 nM.

In the case of `CCN(CC)CCCC(C)Nc1ccnc2cc(Cl)ccc12` (centres unmarked) [Chloroquine, reference compound], the results for the IC50 in data set [1] and in data set [2] were 4.36 ± 0.53 nM and 133 ± 0.16 nM, respectively.

For `COC(=O)c1cc(O)c(O)c(O)c1` [DES4, methyl 3,4,5-trihydroxybenzoate], the “IC50 Dd2” value in data set [3] was 0.56 µg/mL (≈ 3.04 µM).

As a reminder, the CC50 is the concentration at which the toxic effect on the cells reaches its halfway point. On to `COc1cc(O)c2c(=O)c3c(C)cc(O)cc3oc2c1` [compound 2, Griseoxanthone C], for which the IC50 in data set [1] (72 h) and in data set [2] (72 h) was over 25 µg/mL each time. In addition, in data set [4] (setting [7]), the CC50 at 48 h is over 100 µg/mL.

Take `COc1c(O)cc2c(=O)oc3c(OC)c(O)cc4c(=O)oc1c2c34` [compound 3, 3,3′-O-dimethylellagic acid]: the IC50 in data set [1] (setting [8]) was found to be 1.17 ± 0.04 µg/mL. For the same molecule, the IC50 in data set [2] (setting [9]) is 1.36 ± 0.14 µg/mL. The molecule also had a CC50 at 48 h in data set [4] of over 100 µg/mL. In data set [5], the “Resistance Index (RI)” value is 1.16; the “antiplasmodial activity class on both Pf3D7 and PfDd2” value is listed as “pronounced (IC50 ≤ 5 μg/mL: pronounced activity)”.

Consider `COc1cc2c(=O)oc3c(OC)c(O)cc4c(=O)oc(c1OC)c2c34` [compound 4, 3,3′,4-tri-O-methylellagic acid], for which the IC50 in data set [1] (setting [8]) was over 25 µg/mL; in data set [2] (setting [9]), 0.63 ± 0.27 µg/mL. The molecule also came in with a CC50 at 48 h in data set [4] of over 100 µg/mL.

For `COc1c(O)cc2c(=O)oc3c(OC)c(OC4OCC(O)C(OC(=O)c5cc(O)c(O)c(O)c5)C4O)cc4c(=O)oc1c2c34` [compound 5, 3,3″-di-O-methylellagic acid 4-O-(3″-galloyl)-β-D-xylopyranoside], the IC50 in data set [1] (setting [8]) was 1.86 ± 0.18 µg/mL; in data set [2] (setting [9]), 1.76 ± 0.14 µg/mL. In data set [4], this molecule had a CC50 at 48 h of over 100 µg/mL. Besides, the “Resistance Index (RI)” value in data set [5] is on record as 1.12.

Take `O=C(O)c1ccc(O)c(O)c1` [compound 6, 3,4-dihydroxybenzoic acid]: the figures for the half-maximal inhibitory concentration (IC50) in data set [1] (72 h) and in data set [2] (72 h) were over 25 µg/mL and 17.09 ± 0.06 µg/mL, respectively. The “antiplasmodial activity class on PfDd2” value in data set [2] is on record as “moderate (10 < IC50 ≤ 20 μg/mL: moderate activity)”. Also, in data set [4] (setting [7]), the CC50 at 48 h was over 100 µg/mL.

Consider `CCCCCC(=O)Cc1cc(OC)cc(O)c1C(=O)Oc1cc(CCCCC)c(C(=O)O)c(OC)c1` [compound 7, Confluentic acid], for which the IC50 in data set [1] (setting [8]) and in data set [2] (setting [9]) was over 25 µg/mL each time. This molecule also gave a CC50 at 48 h in data set [4] of over 100 µg/mL.

With `CCCCCCCCCCCCCCCCCCCCCCCC(=O)OCC(O)CO` (centres unmarked) [compound 8, Glyceryl-1-tetracosanoate], the IC50 in data set [1] (setting [8]) and in data set [2] (setting [9]) was over 25 µg/mL throughout. This molecule yielded a CC50 at 48 h in data set [4] of over 100 µg/mL.

In the case of `CC(=O)OCC(Cc1ccccc1)NC(=O)C(Cc1ccccc1)NC(=O)c1ccccc1` (centres unmarked) [compound 9, Auranthiamide acetate], the IC50 in data set [1] (setting [8]) and in data set [2] (setting [9]) was over 25 µg/mL in each case. In addition, in data set [4], the 50% cytotoxic concentration (CC50) at 48 h is over 100 µg/mL.

For the molecule `CCOC(=O)c1cc(O)c(O)c(O)c1` [compound 10, Ethyl gallate], the IC50 stood at 1.15 ± 0.1 µg/mL in data set [1] (setting [8]) and 2.86 ± 0.07 µg/mL in data set [2] (setting [9]). The CC50 at 48 h in data set [4] is over 100 µg/mL. Besides, the “Resistance Index (RI)” value in data set [5] worked out at 2.48. Besides, in data set [5], the “antiplasmodial activity class on both Pf3D7 and PfDd2” value was “pronounced (IC50 ≤ 5 μg/mL: pronounced activity)”.

Take `CC(=O)O[C@H]1CC[C@]2(C)[C@H]3CC=C4[C@@H]5CC(C)(C)CC[C@]5(C)CC[C@@]4(C)[C@]3(C)CC[C@H]2C1(C)C` [compound 11, β-amyrin acetate]: the IC50 in data set [1] (setting [8]) and in data set [2] (setting [9]) was over 25 µg/mL each time. Moreover, the CC50 at 48 h in data set [4] was over 100 µg/mL.

For `CC1(C)CC[C@]2(C)CC[C@]3(C)C(=CC[C@@H]4[C@@]5(C)CC[C@H](O)C(C)(C)[C@@H]5CC[C@]43C)[C@@H]2C1` [compound 12, β-amyrin], the IC50 in data set [1] (setting [8]) and in data set [2] (setting [9]) was over 25 µg/mL throughout.

With `C/C(=C/CCC(C)C1CCC2(C)C3=CCC4C(C)(C)C(=O)CCC4(C)C3CCC12C)C(=O)O` (centres unmarked) [compound 13, 3-oxo-lanosta-7,24-Z-dien-26-oid acid], the IC50 in data set [1] (setting [8]) is over 25 µg/mL; in data set [2] (setting [9]), 14.21 ± 0.11 µg/mL. Further, in data set [2], the “antiplasmodial activity class on PfDd2” value is reported as “moderate (10 < IC50 ≤ 20 μg/mL: moderate activity)”. Moreover, the CC50 at 48 h in data set [4] (RAW 264.7 macrophage cells, Raw cells, 48 h, resazurin, read-out: CC50) is over 100 µg/mL.

The values are drawn from article PMC10303846, “In vitro antiplasmodial activity and toxicological profile of extracts, fractions and chemical constituents of leaves and stem bark from Dacryodes edulis (Burseraceae)” (BMC Complementary Medicine and Therapies, 2023).
